Reference: patent publication US20160212997A1, “AGRICULTURAL CHEMICALS” (REDAG CROP PROTECTION LTD, priority 2013, published 2016)
Like-named read-outs stand apart in the source and are kept apart here.

What was measured:
aphids, Myzus persicae = assay: Potter tower spray on aphids, knockdown and mortality; format: in vivo; settings: Myzus persicae, read-out: Average of % corrected affected
Source text: The compounds were screened for insecticidal efficacy against aphids, Myzus persicae, Cabbage moth, Mamestra brassicae, diamond black moths, Plutella xylostella, red spider mites, Tetranychus urticae, whitefly, Trialeurodes vaporariorum, in terms of knockdown and mortality.
(§1) Myzus persicae, Cabbage moth, Mamestra brassicae, diamond back moths, Plutella xylostella, red spider mites, Tetranychus urticae, whitefly, Trialeurodes vaporariorum, were obtained from specified laboratory cultures. Mixed sex and age aphids and mites, moth larvae and whitefly scale infested leaves were used in the experiments. Environmental conditions were closely monitored and recorded and were within the optimal range of the target species.
(§2) The compounds were screened at a range of five concentrations, diluted in DMSO. Some of the compounds were screened against aphids, whitefly and red spider mites and other compounds were screened against cabbage moth, and diamond black moths. A carrier only and an untreated control will also be conducted. Treatments were applied directly onto the insects within Petri dishes, using a potter tower.
(§3) Twenty mites and ten aphids, scales and moth larvae were placed within a Petri dish, lined with a suitable leaf disc on a damp cotton wool pad. Scales were already on leaves. The Petri dishes were then sprayed using a potter tower. The number of knocked down and anthropods were assessed at 24 and 48 hours post treatment. Five replicates were be performed for each treatment, for each species.
(§4) For Tables 2, 4, 5 and 6, the compounds were diluted in DMSO containing 1% v/v Tween 20™. For Tables 2, 4, 5 and 6, the caterpillars were a mixture of Mamestra brassicae and Lacanobia oleracea.

[1] = system: caterpillars, a mixture of Mamestra brassicae and Lacanobia oleracea; assay: Potter tower spray on caterpillars, knockdown and mortality; format: in vivo; settings: read-out: Average of % corrected affected
Source text: as §1, §2, §3, §4

Row | SMILES | pest or weed control at 0.000125 % strength (aphids, Myzus persicae; 24 h) | pest or weed control at 0.00025 % strength (aphids, Myzus persicae; 24 h) | pest or weed control at 0.0005 % strength (aphids, Myzus persicae; 24 h) | pest or weed control at 0.001 % strength (aphids, Myzus persicae; 24 h) | pest or weed control at 0.002 % strength (aphids, Myzus persicae; 24 h) | pest or weed control at 0.000125 % strength (aphids, Myzus persicae; 48 h) | pest or weed control at 0.00025 % strength (aphids, Myzus persicae; 48 h) | pest or weed control at 0.0005 % strength (aphids, Myzus persicae; 48 h) | pest or weed control at 0.001 % strength (aphids, Myzus persicae; 48 h) | pest or weed control at 0.002 % strength (aphids, Myzus persicae; 48 h) | pest or weed control at 0.000125 % strength ([1]; 24 h) | pest or weed control at 0.00025 % strength ([1]; 24 h) | pest or weed control at 0.0005 % strength ([1]; 24 h) | pest or weed control at 0.001 % strength ([1]; 24 h) | pest or weed control at 0.002 % strength ([1]; 24 h) | pest or weed control at 0.000125 % strength ([1]; 48 h) | pest or weed control at 0.00025 % strength ([1]; 48 h) | pest or weed control at 0.0005 % strength ([1]; 48 h) | pest or weed control at 0.001 % strength ([1]; 48 h) | pest or weed control at 0.002 % strength ([1]; 48 h)
1 | Cc1cc(C2=NOC(c3cc(Cl)cc(Cl)c3)(C(F)(F)F)C2)ccc1SCC(=O)NCC(F)(F)F (stereo not shown) [Compound 15, 2-[4-[5-(3,5-dichlorophenyl)-5-(trifluoromethyl)-4H-isoxazol-3-yl]-2-methyl-phenyl]sulfanyl-N-(2,2,2-trifluoroethyl)acetamide, reference compound] | 1 to 19% | 1 to 19% | 1 to 19% | 1 to 19% | 0% | 1 to 19% | 1 to 19% | 1 to 19% | 20 to 39% | 20 to 39% | 1 to 19% | 1 to 19% | 1 to 19% | 1 to 19% | 1 to 19% | 0% | 1 to 19% | 1 to 19% | 1 to 19% | 1 to 19%
2 | Cc1cc(C2=NOC(c3cc(Cl)cc(Cl)c3)(C(F)(F)F)C2)ccc1SC1CCNC1=O (stereo not shown) [Compound 21, 3-[4-[5-(3,5-dichlorophenyl)-5-(trifluoromethyl)-4H-isoxazol-3-yl]-2-methyl-phenyl]sulfanylpyrrolidin-2-one] | 20 to 39% | 1 to 19% | 1 to 19% | 1 to 19% | 1 to 19% | 20 to 39% | 1 to 19% | 1 to 19% | 1 to 19% | 20 to 39% | 1 to 19% | 1 to 19% | 0% | 1 to 19% | 1 to 19% | 1 to 19% | 1 to 19% | 1 to 19% | 1 to 19% | 1 to 19%
